The subject of one series is MDA-MB-231 tumor. The experiment in a line: DT01 with carboplatin in MDA-MB-231 TNBC model. Particulars: carboplatin alone treated group; 177 days of the experiment. It counts as in vivo, athymic nude mouse. On the procedure: Treatment was administered in 3 cycles with a 2 week gap between cycles either alone or in association with carboplatin. Only one dose of carboplatin was injected per cycle of DT01 treatment (2nd day of each cycle). The dose of carboplatin was 50 mg/kg per cycle. Treatments were performed over 7 weeks (3 cycles of treatment).
Antitumor activity was evaluated by measuring tumor volume during and after treatment. DT01 was administered intraperitoneally during 3 sessions of 5 days treatment with two weeks of rest between each session. Carboplatin was administered once a week on the second day of each DT01 treatment cycle.
The MDA-MB231 cell line is derived from a human breast adenocarcinoma and can be ordered at the ATCC. The MDA-MB231 cells were grafted in the mammary fat pad with 10·10^6 cells re-suspended in 0.1 ml of DMEM with no additive. The athymic nude mouse is immunodeficient, thus enabling the xenotransplantation and growth of human tumors.

For series [1], the system named is HCT116. The series can be described thus: In vitro proliferation assay (live cell counts). It counts as cell-based, human. On the procedure:
(§1) CRC cell lines; HT29 (mutated p53, ATCC: HTB-38) and HCT116 (wild-type p53, ATCC: CCL-247) were purchased directly from ATCC. These cells were authenticated by ATCC by generating human short tandem repeat profiles by simultaneously amplifying multiple STR loci and amelogenin (for gender determination) using the Promega PowerPlex® Systems. These cells were cultured in the laboratory for less than 6 months from the date of purchase in DMEM medium supplemented with 10% fetal bovine serum, 1% sodium pyruvate, […] (Invitrogen, Carlsbad, Calif.), when the current study was performed. HT29 cell line stably expressing luciferase was established in-house using a pGL4.5 luciferase reporter vector (luc2/CMV/Hygro) (Promega). HT29 luciferase cells were supplemented with 200 μg/ml hygromycin B. All cell lines were additionally subjected to mycoplasma testing in-house and were free of mycoplasma contamination (Biovalley, France).
(§2) Cells were transfected with 2.5 μgs of Dbait (5′-[…]-(H) […]-3′ SEQ ID No 9) (Eurogentec, Belgium) where H is a hexaethyleneglycol linker and underlined nucleotides are phosphorothioates. The cells were sham transfected with an 8 bp oligonucleotide control (8H) complexed with 11 kDa polyethyleneimine (PEI) as previously described (Quantz et al, 2009, PloS one, 4, e6298).
(§3) Cells were seeded at a density of 3×10^4 cells/60 mm dishes and transfected with Dbait. Following treatment, cells were washed and left untreated or treated with a combination of 5 μM of oxaliplatin (OXA, Sigma) and 2.5 μM of 5-fluouracil (5-FU, Sigma) and live cell counts were performed on days 1, 3, 5, 6, 7 and 9.

For series [2], the system named is HT29. The experiment in a line: In vitro proliferation assay (live cell counts). It counts as cell-based, human. On the procedure:
as §1, §2, §3

Series [3] has as its system pan-nuclear phosphorylation of H2AX in HCT116. The experiment in a line: γH2AX immunofluorescence (DNA-PK activation). It counts as cell-based, human. On the procedure: (§4) The inventors have previously shown that Dbait acts by activating DNA-PK kinase, which phosphorylate numerous targets including the histone variant H2AX.
(§5) γH2AX immunofluorescence was performed as described previously using a monoclonal anti-phospho-Histone H2A.X (Ser139) Antibody, clone JBW301 (1:500 dilution; 05-636, Millipore, USA) (9).

The test system of series [4] is pan-nuclear phosphorylation of H2AX in HT29. The experiment in a line: γH2AX immunofluorescence (DNA-PK activation). It counts as cell-based, human. On the procedure:
as §4, §5

Series [5] relates to HCT116. The experiment in a line: Clonogenic survival assay. It counts as cell-based, human. On the procedure:
as §1, §2
(§6) Cells were transfected with Dbait and left untreated or treated with 5 μM of OXA and 2.5 μM of 5-FU for 1 hr. The cells were diluted, allowed to grow for 14 days and the clones were stained with crystal violet and counted.

For series [6], the system named is HT29. The experiment in a line: Clonogenic survival assay. It counts as cell-based, human. On the procedure: as §1, §2, §6
Where [7] appears, read: single treatment (Dbait alone, or OXA and 5-FU alone).
The mark [8] stands for this setting: combination of Dbait with chemotherapy (OXA/5-FU), p=0.05.

For the compound `N.N.O=C([O-])C1(C(=O)[O-])CCC1.[Pt+2]` [carboplatin], in the series on MDA-MB-231 tumor, the abnormal death result is on record as “one”.
Consider “5′-GCTGTGCCCACAACCCAGCAAACAAGCCTAGA-(H) TCTAGGCTTGTTTGCTGGGTTGTGGGCACAGC-3′ (hexaethyleneglycol linker; phosphorothioates; nucleic acid molecule Id; note=“at the 3′ end of the complementary strand the three last nucleotides with phosphorothioate or methylphosphonate backbone”; modified_base (1)..(3) mod_base= phosphorothioate or methylphosphonate backbone; (1)..(1) at the 5′ end, Lm = carboxamido oligoethylene glycol + C = single or double chain fatty acids, cholesterol, sugars, peptides or proteins; stem_loop (1)..(3) [Dbait]”, for which the “cell proliferation (number of living cells)” value in the series with HCT116 [1] (setting [7]) and with HT29 [2] (setting [7]) was “no effect on cell proliferation” in each case. Further, the “level of proliferation compared to chemotherapy alone” value with HCT116 [1] (transfected with Dbait prior to OXA/5-FU, day 9, p<0.001) is “significantly reduced”; in the series on HT29 [2] (transfected with Dbait prior to OXA/5-FU, day 9, p<0.02) it was “significantly reduced”. Moreover, the “activity by pan-nuclear phosphorylation of H2AX” value in series [3] and in series [4] was “confirmed the activity” throughout. In addition, the lethality entry with HCT116 [5] (Dbait treatment alone, p<0.01) is on record as “approximately 30%”. In addition, the clonogenic survival entry in the series on HCT116 [5] (setting [8]) was “significant reduction in survival”; in the series with HT29 [6] (setting [8]) it was “significant reduction in survival”; with HT29 [6] (single treatment (Dbait alone, or chemotherapy alone p=0.08)), “no significant effect”.

Source of the values: patent US10821128B2, “Treatment of cancer by systemic administration of Dbait molecules” (ONXEO, priority 2016, dated 2020).
